In patent publication US8138377B2, “Arylbicyclo[3.1.0]hexylamines and methods and compositions for their preparation and use” (DOV Pharmaceutical, Inc., priority 2007, dated 2012) one finds IC50 and inhibition data, which are given here for one molecule.

In assay [1] the target is T1, norepinephrine (NE) transport (Rattus norvegicus, UniProt Q63380).
T1 construct: synaptosomal preparations were made from either whole brain (5-HT), striatum (DA) or hypothalamus (NE); from tissue; host or cells: rat hypothalamus synaptosomes
Briefly: Inhibition of [3H]NE uptake in rat hypothalamus synaptosomes. It counts as biochemical. How it is done: (§1) The effects of arylbicyclo[3.1.0]hexylamines of the invention for inhibiting transport of norepinephrine (NE) and/or dopamine (DA) and/or serotonin (5-HT) were evaluated using preparations of synaptosomes from different regions of the rat brain according to previously-reported techniques.
(§2) Whole brains were obtained from normal rats, and synaptosomal preparations were made from either whole brain (5-HT), striatum (DA) or hypothalamus (NE) by gentle disruption in 10 volumes (w/v) of 0.32 M sucrose (0-4° C.) using a Teflon-glass homogenizer. The homogenate was then centrifuged at 1000×g for 10 min. The supernatant was retained and centrifuged at 23000 g for 20 min. The resulting pellet was gently resuspended in 200 volumes of 0.32 M sucrose (0-4° C.) using a teflon-glass homogenizer. Aliquots (250 μL) of this preparation were added to tubes, along with 0.2 μCi/mL of [^3H]5-HT, [^3H]DA, or [^3H]NE, 200 μL of selected 1-arylbicyclo[3.1.0]hexanamine test compounds (to yield final concentrations of 500 nM) and 1 mL of Krebs-Ringer bicarbonate buffer (pH 7.4). […] At the end of this period, the assay was terminated by rapid filtration over Whatman GF/C glass fiber filters. The filters were rinsed 3 times with 4 ml of Krebs-Ringer bicarbonate buffer (0-4° C.), and the radioactivity retained on the filters was measured by liquid scintillation spectrometry.

The target of assay [2] is T2, serotonin (5-HT) transport (Rattus norvegicus, UniProt P31652).
T2 construct: synaptosomal preparations were made from either whole brain (5-HT), striatum (DA) or hypothalamus (NE); from tissue; host or cells: rat whole brain synaptosomes
Briefly: biochemical. How it is done:
as §1, §2

The target in assay [3] is T3, dopamine (DA) transport (Rattus norvegicus, UniProt P23977).
T3 construct: synaptosomal preparations were made from either whole brain (5-HT), striatum (DA) or hypothalamus (NE); from tissue; host or cells: rat striatum synaptosomes
Briefly: biochemical. How it is done:
as §1, §2

T3 sequence (P23977 whole entry): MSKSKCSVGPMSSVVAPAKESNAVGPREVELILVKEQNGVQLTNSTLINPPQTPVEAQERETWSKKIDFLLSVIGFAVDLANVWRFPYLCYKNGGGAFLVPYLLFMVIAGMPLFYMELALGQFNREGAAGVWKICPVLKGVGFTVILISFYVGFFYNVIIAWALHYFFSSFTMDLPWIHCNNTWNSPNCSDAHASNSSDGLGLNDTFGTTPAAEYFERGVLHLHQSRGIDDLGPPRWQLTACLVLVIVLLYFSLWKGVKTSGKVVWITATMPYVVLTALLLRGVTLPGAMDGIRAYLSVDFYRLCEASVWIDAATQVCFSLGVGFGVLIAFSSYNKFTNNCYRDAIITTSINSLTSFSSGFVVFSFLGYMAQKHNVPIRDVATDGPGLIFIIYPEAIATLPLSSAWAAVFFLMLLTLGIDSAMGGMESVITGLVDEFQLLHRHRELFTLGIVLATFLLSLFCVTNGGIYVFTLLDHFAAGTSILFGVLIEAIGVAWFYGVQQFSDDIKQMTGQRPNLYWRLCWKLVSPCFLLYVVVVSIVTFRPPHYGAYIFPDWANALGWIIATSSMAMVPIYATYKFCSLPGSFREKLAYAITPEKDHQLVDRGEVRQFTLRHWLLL
T2 sequence (P31652 whole entry): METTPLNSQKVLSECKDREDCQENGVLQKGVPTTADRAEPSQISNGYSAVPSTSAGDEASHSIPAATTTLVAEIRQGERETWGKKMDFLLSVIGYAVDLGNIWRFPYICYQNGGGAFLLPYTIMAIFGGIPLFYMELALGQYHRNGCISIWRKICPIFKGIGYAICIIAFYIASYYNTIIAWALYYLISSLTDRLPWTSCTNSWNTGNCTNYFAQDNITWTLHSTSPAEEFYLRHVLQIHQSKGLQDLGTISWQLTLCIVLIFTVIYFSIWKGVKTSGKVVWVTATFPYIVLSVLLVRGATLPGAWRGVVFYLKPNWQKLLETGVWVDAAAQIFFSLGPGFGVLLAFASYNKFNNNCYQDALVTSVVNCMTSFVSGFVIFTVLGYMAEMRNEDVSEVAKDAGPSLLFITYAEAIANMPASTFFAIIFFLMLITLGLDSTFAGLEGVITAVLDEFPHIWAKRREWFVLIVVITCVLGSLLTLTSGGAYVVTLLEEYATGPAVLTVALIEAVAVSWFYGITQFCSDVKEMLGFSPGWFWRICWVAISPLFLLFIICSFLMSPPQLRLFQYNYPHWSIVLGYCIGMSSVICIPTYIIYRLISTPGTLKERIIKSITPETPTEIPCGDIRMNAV
T1 sequence (Q63380 1-617): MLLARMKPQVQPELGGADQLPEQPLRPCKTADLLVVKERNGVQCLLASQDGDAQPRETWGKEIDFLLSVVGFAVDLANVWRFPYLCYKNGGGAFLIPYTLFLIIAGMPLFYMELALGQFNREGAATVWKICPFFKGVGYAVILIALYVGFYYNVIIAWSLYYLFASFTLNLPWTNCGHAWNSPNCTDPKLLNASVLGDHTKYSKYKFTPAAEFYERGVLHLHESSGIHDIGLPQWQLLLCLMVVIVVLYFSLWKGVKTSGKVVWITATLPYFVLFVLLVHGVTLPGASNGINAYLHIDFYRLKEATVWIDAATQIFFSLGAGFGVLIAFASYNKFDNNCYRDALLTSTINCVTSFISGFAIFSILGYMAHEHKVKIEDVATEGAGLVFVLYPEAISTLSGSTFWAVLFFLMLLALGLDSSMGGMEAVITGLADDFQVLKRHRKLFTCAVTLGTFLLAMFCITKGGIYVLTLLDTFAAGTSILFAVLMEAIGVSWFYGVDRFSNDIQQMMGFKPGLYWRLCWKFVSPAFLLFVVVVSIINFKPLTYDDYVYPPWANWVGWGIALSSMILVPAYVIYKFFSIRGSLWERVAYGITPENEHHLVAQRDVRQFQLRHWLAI

On to `CNC1CC2CC2(c2cccc3ccccc23)C1` (stereo not drawn), for which the concentration for half-maximal inhibition (IC50) – broadly, the concentration at which inhibition is half-maximal – in assay [1] is 74 nM; in assay [2], 76 nM; in assay [3], 8730 nM. Also, the inhibition (commonly how much of the control response was suppressed) at 0.5 µM came to 81% in assay [1] (500 nM, 20 min, 37° C.); 82% in assay [2] (read-out: Uptake Inhibition % at 500 nM 5-HT); 23% in assay [3] (read-out: Uptake Inhibition % at 500 nM DA).
